Test [1] addresses T1, NMDA receptor subunits 1A/2C (Rattus norvegicus, UniProt P35439+Q00961).
T1 construct: expressed in transfected cells; host or cells: Xenopus laevis oocytes (cRNA injection; clones from Dr. P. H. Seeburg)
As to the kind of experiment: Electrophysiological assay at NMDA receptor subunits expressed in Xenopus oocytes, 1A/2C. Format: cell-based. The following applies: Xenopus oocytes; glutamate 100 μm and glycine 1-100 μm; read-out: Subunits IC50, 1A/2C. Summed up:
(§1)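 Two-electrode voltage clamp of Xenopus oocytes injected with rat NR1A plus NR2A, 2B or 2C cRNA (1:1), recorded 3–21 days post-injection in Ringer's, pH 7.4. Currents evoked by glutamate (100 μm) with glycine (1–100 μm); antagonist applied by bath perfusion at rising concentrations, IC50 from logistic fit or linear regression for incomplete curves.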

The target in test [2] is T2, NMDA receptor subunits 1A/2B (Rattus norvegicus, UniProt P35439+Q00960).
T2 construct: expressed in transfected cells; host or cells: Xenopus laevis oocytes (cRNA injection; clones from Dr. P. H. Seeburg)
The experiment in a line: Electrophysiological assay at NMDA receptor subunits expressed in Xenopus oocytes, 1A/2B. Format: cell-based. The settings on record: Xenopus oocytes; glutamate 100 μm and glycine 1-100 μm; read-out: Subunits IC50, 1A/2B. Put shortly: as §1

For test [3], the target named is T3, NMDA receptor subunits 1A/2A (Rattus norvegicus, UniProt P35439+Q00959).
T3 construct: expressed in transfected cells; host or cells: Xenopus laevis oocytes (cRNA injection; clones from Dr. P. H. Seeburg)
The experiment in a line: Electrophysiological assay at NMDA receptor subunits expressed in Xenopus oocytes, 1A/2A. Format: cell-based. The following applies: glutamate 100 μm and glycine 1-100 μm. Summed up:
as §1

Test [4] relates to Maximal Electroshock-induced Seizures. The experiment in a line: Maximal electroshock-induced seizures (MES). The format is in vivo. The following applies: Mus musculus; mice; 50 mA, 60 pulses/sec, 1 sec.
Text: Seizures were induced by application of current (50 mA, 60 pulses/sec, 0.8 sec pulse width, 1 sec duration, d.c.) through saline-coated corneal electrodes using a Ugo Basile ECT device (Model 7801). […] A tonic seizure was defined as a hindlimb extension in excess of 90 degrees from the plane of the body.

Each structure is given as a SMILES string. Where a name gives a salt, the structure may show the parent alone.

Here are results for 28 molecules from patent US6124323A, “4-substituted piperidine analogs and their use as subtype selective NMDA receptor antagonists” (Warner-Lambert Company, priority 1998, dated 2000).

For orientation: ED50 means the dose at which the effect has come halfway, by size or by number of responders. A low value points to greater potency.

T2 sequence (Q00960 27-1482, other chains not shown): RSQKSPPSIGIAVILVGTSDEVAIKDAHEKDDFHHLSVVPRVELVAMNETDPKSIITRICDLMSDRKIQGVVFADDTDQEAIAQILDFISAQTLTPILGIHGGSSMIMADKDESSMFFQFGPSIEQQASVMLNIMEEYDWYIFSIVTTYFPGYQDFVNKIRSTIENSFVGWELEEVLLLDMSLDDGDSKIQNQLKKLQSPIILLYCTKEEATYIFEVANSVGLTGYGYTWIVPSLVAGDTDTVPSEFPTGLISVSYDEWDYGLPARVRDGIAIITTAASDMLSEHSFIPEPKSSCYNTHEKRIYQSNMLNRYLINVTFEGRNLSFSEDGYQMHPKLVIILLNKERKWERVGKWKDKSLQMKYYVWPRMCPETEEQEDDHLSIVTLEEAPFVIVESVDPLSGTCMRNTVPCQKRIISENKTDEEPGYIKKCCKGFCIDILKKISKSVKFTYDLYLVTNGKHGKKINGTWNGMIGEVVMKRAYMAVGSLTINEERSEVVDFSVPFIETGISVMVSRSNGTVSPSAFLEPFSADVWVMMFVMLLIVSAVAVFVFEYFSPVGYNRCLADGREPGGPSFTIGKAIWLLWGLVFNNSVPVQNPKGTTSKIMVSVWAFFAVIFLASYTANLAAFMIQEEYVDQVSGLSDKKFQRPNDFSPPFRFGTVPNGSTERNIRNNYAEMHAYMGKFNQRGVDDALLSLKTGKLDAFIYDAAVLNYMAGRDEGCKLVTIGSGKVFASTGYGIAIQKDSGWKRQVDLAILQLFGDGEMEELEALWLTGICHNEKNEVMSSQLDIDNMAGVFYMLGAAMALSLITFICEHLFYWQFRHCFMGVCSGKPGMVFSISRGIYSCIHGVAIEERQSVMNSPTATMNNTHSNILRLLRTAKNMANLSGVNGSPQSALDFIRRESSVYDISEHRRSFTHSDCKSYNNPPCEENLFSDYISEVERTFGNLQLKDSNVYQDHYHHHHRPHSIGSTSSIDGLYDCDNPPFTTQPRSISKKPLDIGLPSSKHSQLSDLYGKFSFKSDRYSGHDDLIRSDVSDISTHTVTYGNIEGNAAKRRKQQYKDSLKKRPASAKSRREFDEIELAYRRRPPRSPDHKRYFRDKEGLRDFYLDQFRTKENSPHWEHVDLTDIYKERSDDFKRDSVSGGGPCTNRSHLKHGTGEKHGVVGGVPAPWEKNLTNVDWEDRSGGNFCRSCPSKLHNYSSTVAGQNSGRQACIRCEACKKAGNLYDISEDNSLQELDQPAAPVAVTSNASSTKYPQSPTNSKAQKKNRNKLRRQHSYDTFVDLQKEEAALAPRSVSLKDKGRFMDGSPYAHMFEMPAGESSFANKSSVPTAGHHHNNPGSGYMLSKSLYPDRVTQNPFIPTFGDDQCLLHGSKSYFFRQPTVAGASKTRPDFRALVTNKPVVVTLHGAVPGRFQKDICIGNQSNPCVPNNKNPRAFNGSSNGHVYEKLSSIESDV
T1 sequence (Q00961 20-1237, other chains not shown): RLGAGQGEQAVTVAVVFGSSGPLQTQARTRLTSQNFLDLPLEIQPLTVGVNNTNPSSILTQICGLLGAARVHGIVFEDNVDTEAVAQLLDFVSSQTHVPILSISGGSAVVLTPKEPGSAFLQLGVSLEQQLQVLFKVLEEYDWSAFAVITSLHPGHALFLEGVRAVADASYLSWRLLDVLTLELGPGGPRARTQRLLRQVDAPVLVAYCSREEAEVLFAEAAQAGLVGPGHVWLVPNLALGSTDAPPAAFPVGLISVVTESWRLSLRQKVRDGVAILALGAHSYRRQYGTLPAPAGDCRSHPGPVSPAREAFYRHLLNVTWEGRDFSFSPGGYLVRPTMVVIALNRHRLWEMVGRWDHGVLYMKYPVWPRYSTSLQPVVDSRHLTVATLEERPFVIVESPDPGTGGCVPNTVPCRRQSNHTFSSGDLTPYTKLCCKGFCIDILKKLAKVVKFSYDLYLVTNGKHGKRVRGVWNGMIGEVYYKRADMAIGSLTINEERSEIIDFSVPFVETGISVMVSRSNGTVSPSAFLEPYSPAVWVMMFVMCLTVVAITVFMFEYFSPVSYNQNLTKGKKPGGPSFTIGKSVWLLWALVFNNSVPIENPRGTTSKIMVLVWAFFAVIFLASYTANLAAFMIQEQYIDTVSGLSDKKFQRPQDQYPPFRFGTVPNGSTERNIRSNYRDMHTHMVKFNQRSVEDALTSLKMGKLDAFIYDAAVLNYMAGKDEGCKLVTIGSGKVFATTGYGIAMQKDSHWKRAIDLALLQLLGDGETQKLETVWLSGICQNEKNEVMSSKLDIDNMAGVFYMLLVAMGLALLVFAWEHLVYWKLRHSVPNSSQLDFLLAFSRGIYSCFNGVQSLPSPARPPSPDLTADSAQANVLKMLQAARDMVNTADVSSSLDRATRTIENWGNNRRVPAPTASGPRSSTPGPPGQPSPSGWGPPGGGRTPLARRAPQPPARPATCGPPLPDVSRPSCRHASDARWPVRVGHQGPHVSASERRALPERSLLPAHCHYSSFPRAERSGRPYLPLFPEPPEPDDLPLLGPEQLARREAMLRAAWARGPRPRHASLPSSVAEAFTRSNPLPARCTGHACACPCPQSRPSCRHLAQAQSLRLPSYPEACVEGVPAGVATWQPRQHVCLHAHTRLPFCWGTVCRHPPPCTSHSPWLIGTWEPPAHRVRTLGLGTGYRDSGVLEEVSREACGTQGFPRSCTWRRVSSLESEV
T3 sequence (Q00959 20-1464 limits assumed, other chains not shown): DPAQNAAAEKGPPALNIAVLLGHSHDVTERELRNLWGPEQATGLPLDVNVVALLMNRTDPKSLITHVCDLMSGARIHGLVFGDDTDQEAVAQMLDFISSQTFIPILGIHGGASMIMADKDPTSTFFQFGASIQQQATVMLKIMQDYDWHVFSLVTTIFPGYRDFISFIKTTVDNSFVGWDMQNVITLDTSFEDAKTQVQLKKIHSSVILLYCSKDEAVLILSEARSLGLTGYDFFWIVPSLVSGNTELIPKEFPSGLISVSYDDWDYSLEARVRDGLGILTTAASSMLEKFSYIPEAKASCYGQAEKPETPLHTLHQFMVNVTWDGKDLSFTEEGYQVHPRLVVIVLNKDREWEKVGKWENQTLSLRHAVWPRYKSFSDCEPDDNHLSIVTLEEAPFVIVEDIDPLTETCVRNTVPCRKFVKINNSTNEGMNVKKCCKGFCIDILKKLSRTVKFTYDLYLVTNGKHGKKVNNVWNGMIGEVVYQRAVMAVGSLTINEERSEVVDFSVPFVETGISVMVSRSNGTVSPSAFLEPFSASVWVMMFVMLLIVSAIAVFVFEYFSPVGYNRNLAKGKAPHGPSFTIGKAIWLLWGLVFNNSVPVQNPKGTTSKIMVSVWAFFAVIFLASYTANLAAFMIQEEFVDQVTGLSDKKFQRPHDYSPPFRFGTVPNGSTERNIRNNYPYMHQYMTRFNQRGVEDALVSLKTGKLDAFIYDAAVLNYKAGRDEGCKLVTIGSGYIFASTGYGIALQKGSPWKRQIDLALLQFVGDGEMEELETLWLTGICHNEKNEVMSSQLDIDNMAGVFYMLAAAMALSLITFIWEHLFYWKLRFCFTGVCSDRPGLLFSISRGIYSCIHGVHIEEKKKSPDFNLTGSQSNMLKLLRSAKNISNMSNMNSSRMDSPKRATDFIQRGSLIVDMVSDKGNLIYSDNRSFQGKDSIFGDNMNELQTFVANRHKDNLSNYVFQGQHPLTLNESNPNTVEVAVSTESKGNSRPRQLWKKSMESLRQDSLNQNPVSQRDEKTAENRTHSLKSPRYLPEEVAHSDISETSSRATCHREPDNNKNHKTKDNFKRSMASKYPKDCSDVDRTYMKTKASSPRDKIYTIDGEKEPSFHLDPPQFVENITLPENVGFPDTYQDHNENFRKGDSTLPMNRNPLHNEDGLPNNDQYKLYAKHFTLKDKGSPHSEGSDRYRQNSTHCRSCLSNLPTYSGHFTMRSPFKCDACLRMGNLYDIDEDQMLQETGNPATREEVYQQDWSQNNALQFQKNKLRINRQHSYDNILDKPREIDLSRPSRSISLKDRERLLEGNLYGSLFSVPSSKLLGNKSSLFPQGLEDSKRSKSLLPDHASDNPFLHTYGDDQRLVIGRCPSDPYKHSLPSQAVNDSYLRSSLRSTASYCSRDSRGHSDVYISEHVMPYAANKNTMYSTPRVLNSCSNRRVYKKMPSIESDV

For the molecule `Oc1ccc(CC2CCN(CCOc3ccc(F)cc3)CC2)cc1` [Ex. 104], the figures for the IC50 in test [1], in test [2] and in test [3] were above 300 µM, 0.2 µM and 50 µM, respectively. Also, the ED50 in test [4] was 3 mg/kg.
The matching figures for `Oc1ccc(OCCN2CCC(Cc3cccc(F)c3)CC2)cc1` [Ex. 112, 1-[2-(4-Hydroxyphenoxy)ethyl]-4-(3-fluorobenzylpiperidine hydrochloride]: 280 µM, 0.08 µM, 30 µM and 4.5 mg/kg.
Consider `Cc1ccc(CC2CCN(CCOc3ccc(O)cc3)CC2)cc1` [Ex. 115, 1-[2-(4-Hydroxyphenoxy)ethyl]-4-(4-methylbenzyl)piperidine hydrochloride], for which the IC50 in test [1] came to 220 µM; in test [2], 0.03 µM; in test [3], 75 µM. Also, the 50% effect level in test [4] (ED50) was put at a dose of 0.7 mg/kg.
The matching figures for `Cc1ccc(CC2CCN(CCOc3ccc(F)cc3)CC2)cc1` [Ex. 116, 1-(2-(4-Fluorophenoxy)ethyl)-4-(4-methylbenzyl)piperidine hydrochloride]: 150 µM, 4.5 µM, 70 µM and 3 mg/kg.
For `CCc1ccc(CC2CCN(CCOc3ccc(O)cc3)CC2)cc1` [Ex. 120, hydrochloride], in that order: above 300 µM, 0.02 µM, 55 µM and 2 mg/kg.
The matching figures for `COc1ccc(CC2CCN(CCOc3ccc(O)cc3)CC2)cc1` [Ex. 121, 1-[2-(4-Hydroxyphenoxy)ethyl]-4-(4-methoxybenzyl)piperidine hydrochloride]: above 300 µM, 0.05 µM, 110 µM and 2.5 mg/kg.
`Oc1ccc(OCCN2CCC(Cc3ccc(F)c(F)c3)CC2)cc1` [Ex. 122, 1-[2-(4-Hydroxyphenoxy)ethyl]-4-(3,4-difluorobenzyl)piperidine hydrochloride]: the results for the IC50 in test [1], in test [2] and in test [3] were 280 µM, 0.18 µM and 55 µM, respectively. The molecule further yielded an ED50 in test [4] of 5 mg/kg.
For `Oc1ccc(OCCN2CCC(O)(Cc3ccc(F)cc3)CC2)cc1` [Ex. 123, 1-[2-(4-Hydroxyphenoxy)ethyl]-4-(4-fluorobenzyl)-4-hydroxy-piperidine hydrochloride], in that order: above 300 µM, 0.07 µM, 50 µM and 3 mg/kg.
For `Cl.Cl.Oc1ccc(OCCN2CCC(Cc3ccccn3)CC2)cc1` [Ex. 125, 1-(2-(4-Hydroxyphenoxy)ethyl)-4-(2-picolyl)piperidine dihydrochloride], the IC50 in test [1] was above 300 µM; in test [2] it was 3.3 µM; in test [3], 75 µM. Further, it took a dose of 15 mg/kg to reach the 50% effect level in test [4] (ED50).
For `Oc1ccc(OCCN2CCC(Cc3ccccc3F)CC2)cc1` [Ex. 128, 1-[2-(4-Hydroxyphenoxy)ethyl]-4-(2-fluorobenzyl)piperidine hydrochloride], in that order: above 300 µM, 0.04 µM, 110 µM and 1 mg/kg.
The matching figures for `Oc1ccc(OCCN2CCC(Cc3ccc(C(F)(F)F)cc3)CC2)cc1` [Ex. 129, 1-[2-(4-Hydroxyphenoxy)ethyl]-4-(4-trifluorobenzyl)piperidine hydrochloride]: 170 µM, 0.05 µM, 170 µM and 2 mg/kg.
For `CC(C)c1ccc(CC2CCN(CCOc3ccc(O)cc3)CC2)cc1` [Ex. 131, 1-[2-(4-Hydroxyphenoxy)ethyl]-4-(4-isopropylbenzyl)piperidine hydrochloride], in that order: above 300 µM, 0.05 µM, 50 µM and 1.5 mg/kg.
Consider `CC(C)(C)c1ccc(CC2CCN(CCOc3ccc(O)cc3)CC2)cc1` [Ex. 132, 1-[2-(4-Hydroxyphenoxy)ethyl]-4-(4-t-butylbenzyl)piperidine hydrochloride], for which the IC50 in test [1] stood at 230 µM; in test [2] it was 0.16 µM; in test [3], 23 µM. The 50% effective dose (ED50) in test [4] turned out to be 1 mg/kg.
As for `Cc1ccc(CC2CCN(CCOc3ccc(F)cc3)CC2)c(F)c1` [Ex. 133, 4-(2-Fluoro-4-methylbenzyl)-1-(2-(4-fluorophenoxy)ethyl)piperidine hydrochloride], the IC50 in test [1] was found to be 150 µM; in test [2], 0.21 µM; in test [3], 80 µM. The same molecule yielded a 50% effective dose (ED50) in test [4] of 2.5 mg/kg.
The matching figures for `Cc1ccc(CC2CCN(CCOc3ccc(O)cc3)CC2)c(F)c1` [Ex. 134, 4-(2-Fluoro-4-methylbenzyl)-1-(2-(4-hydroxyphenoxy)ethyl)piperidine hydrochloride]: 140 µM, 0.03 µM, 60 µM and 1.5 mg/kg.
For `CN(CCN1CCC(Cc2ccccc2)CC1)c1ccccc1` [Ex. 143, 4-Benzyl-1-((2-(N-methyl-N-phenyl)amino)ethyl)piperidine dihydrochloride], in that order: above 300 µM, 0.4 µM, 190 µM and 0.5 mg/kg.
The matching figures for `Cl.Oc1ccc(OCCN2CCC(Cc3c(F)cccc3F)CC2)cc1` [Ex. 146, 1-[2-(4-Hydroxyphenoxy)ethyl]-4-(2,6-difluorobenzyl)piperidine hydrochloride]: 160 µM, 0.01 µM, 30 µM and 0.8 mg/kg.
As to `Cc1ccc(CC2CCN(CCOc3ccc(O)c(C)c3)CC2)c(F)c1` [Ex. 147, 1-[2-(4-Hydroxy-3-methylphenoxy)ethyl]-4-(2-fluoro-4-methylbenzyl)piperidine hydrochloride], the IC50 in test [1] came to 210 µM; in test [2], 0.1 µM; in test [3], 40 µM. The 50% effect level in test [4] (ED50) was put at a dose of 3 mg/kg.
The matching figures for `Cc1ccc(CC2CCN(CCOc3ccc(O)c(F)c3)CC2)c(F)c1` [Ex. 149, 1-[2-(4-Hydroxy-3-fluorophenoxy)ethyl]-4-(2-fluoro-4-methylbenzyl)piperidine hydrochloride]: 140 µM, 0.04 µM, 50 µM and 2 mg/kg.
With `Cc1ccc(CC2CCN(CCOc3ccc(O)c(F)c3)CC2)cc1` [Ex. 151, 1-[2-(4-Hydroxy-3-fluorophenoxy)ethyl]-4-(4-methylbenzyl)piperidine hydrochloride], the IC50 was found to be 100 µM in test [1], 0.02 µM in test [2] and 52 µM in test [3]. In test [4], the 50% effective dose (ED50) came to 2.5 mg/kg.
The matching figures for `Cc1ccc(CC2(O)CCN(CCOc3ccc(O)cc3)CC2)cc1.Cl` [Ex. 154, 1-[2-(4-Hydroxyphenoxy)ethyl]-4-hydroxy-4-(4-methylbenzyl)piperidine hydrochloride]: 230 µM, 0.02 µM, 250 µM and 1.5 mg/kg.
For `Cl.Oc1ccc(SCCN2CCC(Cc3ccc(F)cc3)CC2)cc1` [Ex. 165, 4-(4-Fluorobenzyl)-1-(2-(4-hydroxythiophenoxy)ethyl)piperidine hydrochloride], in that order: 301 µM, 0.05 µM, 65 µM and 0.5 mg/kg.
Consider `COc1ccc(C2CCN(CCCCc3ccccc3)CC2)cc1` [Ex. 166, 4-(4-Methoxyphenyl)-1-(4-phenylbutyl)piperidine], for which the IC50 was above 300 µM in test [1], 170 µM in test [2] and 270 µM in test [3]. Further, the ED50 in test [4] worked out at 0.7 mg/kg.
The matching figures for `Oc1ccc(C2CCN(CCCCc3ccccc3)CC2)cc1` [Ex. 167, 4-(4-Hydroxyphenyl)-1-(4-phenylbutyl)piperidine]: 301 µM, 0.02 µM, 110 µM and 0.3 mg/kg.
For `Cc1ccc(CC2CCN(CCOc3ccc(Cl)cc3)CC2)cc1.Cl` [Ex. 168, 1-(2-(4-Chlorophenoxy)ethyl)-4-(4-methylbenzyl)piperidine hydrochloride], the IC50 was above 300 µM in test [1], 9.5 µM in test [2] and above 300 µM in test [3]. In test [4], this molecule had a 50% effective dose (ED50) of 4 mg/kg.
On to `O=c1[nH]c2ccc(OCCCN3CCC(Cc4ccccc4)CC3)cc2[nH]1` [Ex. 170, 4-Benzyl-1-[3-(2-oxobenzimidazol-5-oxy)propyl]piperidine], for which the IC50 in test [1] turned out to be 230 µM; in test [2], 0.04 µM; in test [3], 62 µM. The molecule further yielded an ED50 in test [4] of 10 mg/kg.
The matching figures for `S=c1[nH]c2ccc(OCCN3CCC(Cc4ccccc4)CC3)cc2[nH]1` [Ex. 171, 4-Benzyl-1-(2-(2-thioxobenzimidazol-5-oxy)ethyl)piperidine]: 170 µM, 0.04 µM, 72 µM and 5 mg/kg.
The matching figures for `Cc1ccc(CC2CCN(CCOc3ccc4[nH]c(=S)[nH]c4c3)CC2)cc1` [Ex. 174, 4-(4-Methylbenzyl)-1-(2-(2-thioxobenzimidazol-5-oxy)ethyl)piperidine]: 45 µM, 0.03 µM, 35 µM and 5 mg/kg.
